Assay results published in patent US8426447B2, “Spiro-tricyclic ring compounds as beta-secretase modulators and methods of use” (Amgen Inc., priority 2008, dated 2013).

Assays:
BACE1 [1] = biological target: T1, BACE1 (Homo sapiens, UniProt P56817); experiment: In Vitro Enzymatic BACE FRET (Fluorescence Resonance Energy Transfer) Assay; assay type: biochemical; conditions: read-out: BACE1 FRET assay
Method in brief: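 Run in 0.05 M acetate pH 4.2 with 10% DMSO final and 100 uM genapol detergent below its CMC. Reaction was started with 50 nM FRET peptide substrate (fluorophore and quencher flanking the BACE cleavage site), incubated one hour, stopped with Tris to neutral pH, and fluorescence read.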

BACE1 [2] = biological target: T1, BACE1; experiment: In Vitro BACE Cell-based Assay (HEK cell assay): Aβ40 in conditioned medium of cells stably expressing Amyloid Precursor Protein, sandwich ELISA; conditions: read-out: HEK cell assay
Method in brief: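 Conditioned medium Aβ40 by ELISA: pAb40 capture 3 h 4° C., biotin-6E10 detection 2 h 4° C., Streptavidin-Europium TRF. IC50 fitted from % control.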

[3] = in vitro BACE FRET enzyme assay, IC50 class symbols
[4] = HEK cell-based assay, Aβ40 in conditioned medium, IC50 class symbols

T1 sequence (P56817 46-501, species assumed): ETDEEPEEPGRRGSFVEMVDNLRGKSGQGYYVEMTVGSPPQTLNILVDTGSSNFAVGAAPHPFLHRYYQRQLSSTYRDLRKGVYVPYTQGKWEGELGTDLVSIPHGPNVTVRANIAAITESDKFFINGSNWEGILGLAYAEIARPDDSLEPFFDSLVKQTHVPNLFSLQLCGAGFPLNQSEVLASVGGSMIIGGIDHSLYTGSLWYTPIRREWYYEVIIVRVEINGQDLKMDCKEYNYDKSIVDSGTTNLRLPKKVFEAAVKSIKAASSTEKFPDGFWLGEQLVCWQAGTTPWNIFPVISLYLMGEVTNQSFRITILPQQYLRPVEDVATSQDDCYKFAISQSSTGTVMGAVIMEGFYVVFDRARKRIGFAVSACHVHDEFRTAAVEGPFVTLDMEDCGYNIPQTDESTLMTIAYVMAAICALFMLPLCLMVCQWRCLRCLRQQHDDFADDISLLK

CC1(C#Cc2cc(F)c3c(c2)[C@]2(COC(N)=N2)c2cc(-c4cncnc4)ccc2O3)COC1 [compound 475]
IC50 (BACE1 [1]): < 0.1 µM | IC50 (BACE1 [2]; HEK cells): < 0.1 µM

NC1=N[C@@]2(CO1)c1cc(-c3cccnc3)ccc1Oc1ccc(Cl)nc12 [compound 988]
IC50 (BACE1 [1]): 1 to 5 µM | IC50 (BACE1 [2]): 1 to 5 µM

CC1(C)CC1c1cc2c(cn1)Oc1ccc(-c3cccnc3)cc1[C@]21COC(N)=N1 (stereo partly shown) [compound 677]
IC50 (BACE1 [1]): < 0.1 µM | IC50 (BACE1 [2]): 0.1 to 1 µM

NC1=N[C@@]2(CO1)c1cc(C(=O)N3CCCC3)ccc1Oc1ccc(-c3cccnc3)cc12 [compound 872]
IC50 (BACE1 [1]; Table IV, class symbols): 0.1 to 1 µM | IC50 (BACE1 [2]; Table IV, class symbols): 0.1 to 1 µM

Cn1cc(-c2cc(F)c3c(c2)[C@]2(COC(N)=N2)c2cc(-c4cncnc4)ccc2O3)cn1 [compound 511]
IC50 (BACE1 [1]): < 0.1 µM | IC50 (BACE1 [2]; HEK cells): < 0.1 µM

Cc1n[nH]cc1-c1ccc2c(c1)[C@@]1(COC(N)=N1)c1cc(OCC(C)(C)C)ccc1O2 [Example 129, (S)-2′-(3-methyl-1H-pyrazol-4-yl)-7′-(neopentyloxy)-5H-spiro[oxazole-4,9′-xanthen]-2-amine 2,2,2-trifluoroacetate]
IC50 (BACE1 [1]; Table III, IC50's in uM ranges): 0.1 to 1 µM | IC50 (BACE1 [2]; Table III, IC50's in uM ranges): > 5 µM

Cc1cc(-c2ccc3c(c2)[C@]2(COC(N)=N2)c2cc(-c4ccc(F)nc4)ccc2O3)on1 [compound 565]
IC50 (BACE1 [1]; Table IV, class symbols): < 0.1 µM | IC50 (BACE1 [2]; Table IV, class symbols): 0.1 to 1 µM

NC1=N[C@]2(CO1)c1cc(-c3ccccc3)ccc1Oc1ncc(C3=CCOCC3)cc12 [compound 718]
IC50 (BACE1 [1]): 1 to 5 µM | IC50 (BACE1 [2]): 1 to 5 µM

COc1ncc(-c2ccc3c(c2)[C@@]2(COC(N)=N2)c2cc(OCC(C)(C)C)ccc2O3)cn1 [compound 977]
IC50 (BACE1 [1]): 0.1 to 1 µM | IC50 (BACE1 [2]): 1 to 5 µM

NC1=N[C@@]2(CO1)c1cc(-c3cc(F)ccc3F)ccc1Oc1ncc(N3C[C@@H]4C[C@H]3CO4)cc12 [compound 453]
IC50 (BACE1 [1]): < 0.1 µM | IC50 (BACE1 [2]; HEK cells): < 0.1 µM

CC(C)(O)C#Cc1cnc2c(c1)[C@]1(COC(N)=N1)c1cc(-c3cncnc3)ccc1O2 [compound 823]
IC50 (BACE1 [1]; Table IV, class symbols): < 0.1 µM | IC50 (BACE1 [2]; Table IV, class symbols): < 0.1 µM

CC(C)(C)COc1cnc2c(c1)[C@]1(COC(N)=N1)c1cc(Br)ccc1O2 [compound 388]
IC50 (BACE1 [1]; [3]): 0.1 to 1 µM | IC50 (BACE1 [2]; [4]): 1 to 5 µM

COc1ccc2c(c1)[C@]1(N=C(N)O[C@H]1C)c1cc(-c3cncnc3)ccc1O2 (single isomer, unassigned) [Example 125a]
IC50 (BACE1 [1]; Table III, IC50's in uM ranges): > 5 µM | IC50 (BACE1 [2]; Table III, IC50's in uM ranges): > 5 µM

C[C@@H]1CN(c2cc(F)c3c(c2)[C@]2(COC(N)=N2)c2cc(-c4cncnc4)ccc2O3)C[C@H](C)O1 [compound 501]
IC50 (BACE1 [1]): < 0.1 µM | IC50 (BACE1 [2]; HEK cells): < 0.1 µM

Cn1cnc(-c2ccc3c(c2)[C@]2(COC(N)=N2)c2cc(-c4cccnc4)ccc2O3)c1 [compound 554]
IC50 (BACE1 [1]; Table IV, class symbols): 0.1 to 1 µM | IC50 (BACE1 [2]; Table IV, class symbols): < 0.1 µM

NC1=N[C@]2(CO1)c1cc(C3=CCOCC3)ccc1Oc1cc(F)c(-c3cncnc3)cc12 [compound 529]
IC50 (BACE1 [1]): < 0.1 µM | IC50 (BACE1 [2]; HEK cells): < 0.1 µM

NC1=N[C@]2(CO1)c1ccccc1Oc1ncc(-c3cncnc3)cc12 [compound 661]
IC50 (BACE1 [1]; Table IV, class symbols): 0.1 to 1 µM | IC50 (BACE1 [2]; Table IV, class symbols): 0.1 to 1 µM

CC(=O)c1cccc(-c2ccc3c(c2)[C@@]2(COC(N)=N2)c2cc(OCC(C)(C)C)ccc2O3)c1 [compound 973]
IC50 (BACE1 [1]): 0.1 to 1 µM | IC50 (BACE1 [2]): 1 to 5 µM

CC(C)(C)COc1ccc2c(c1)[C@]1(COC(N)=N1)c1cc(C#N)ccc1O2 [compound 959]
IC50 (BACE1 [1]): 0.1 to 1 µM | IC50 (BACE1 [2]): 1 to 5 µM

CC(=O)COc1ccc2c(c1)[C@]1(COC(N)=N1)c1cc(-c3cccnc3)cnc1O2 [compound 865]
IC50 (BACE1 [1]; Table IV, class symbols): 1 to 5 µM | IC50 (BACE1 [2]; Table IV, class symbols): 1 to 5 µM

Cc1cccc(-c2ccc3c(c2)[C@]2(COC(N)=N2)c2cc(-c4cncnc4)ccc2O3)c1 [compound 998]
IC50 (BACE1 [1]): < 0.1 µM | IC50 (BACE1 [2]): < 0.1 µM

NC1=N[C@@]2(CO1)c1cc(C(=O)NC3CC3)ccc1Oc1ccc(-c3ccccc3)cc12 [compound 518]
IC50 (BACE1 [1]): < 0.1 µM | IC50 (BACE1 [2]; HEK cells): < 0.1 µM

NC1=N[C@@]2(CO1)c1cc(-c3cccnc3)ccc1Oc1c(F)cccc12 [compound 592]
IC50 (BACE1 [1]; Table IV, class symbols): < 0.1 µM | IC50 (BACE1 [2]; Table IV, class symbols): 0.1 to 1 µM

COC(C)(C)C#Cc1ccc2c(c1)[C@@]1(COC(N)=N1)c1cc(-c3cccnc3)cnc1O2 [compound 179]
IC50 (BACE1 [1]; Table III, IC50's in uM ranges): < 0.1 µM | IC50 (BACE1 [2]; Table III, IC50's in uM ranges): 0.1 to 1 µM

CC(C)(C)C#Cc1cnc2c(c1)[C@@]1(COC(N)=N1)c1cc(-c3cccnc3)ccc1O2 [185a]
IC50 (BACE1 [1]; Table III, IC50's in uM ranges): 0.1 to 1 µM | IC50 (BACE1 [2]; Table III, IC50's in uM ranges): 1 to 5 µM

NC1=N[C@@]2(CO1)c1cc(-c3cccnc3F)ccc1Oc1ncc(-c3ccncc3)cc12 [compound 403]
IC50 (BACE1 [1]; [3]): < 0.1 µM | IC50 (BACE1 [2]; [4]): < 0.1 µM
